Data: US20070078620A1, “Methods and kits for delivering pharmaceutical agents into the coronary vascular adventitia” (Mercator MedSystems Inc., priority 2002, published 2007)

Assays:
[1] = two injections of 0.5 mL 5% silver nitrate into each iliac artery; hematoxylin-eosin stained sections
From the text: The animal was sacrificed according to approved protocol following the last injection. The arteries were removed and placed in 10% formalin without perfusion. 2 mm segments were embedded in paraffin, sectioned, and hematoxylin-eosin stained.

[2] = Distribution of a lipophilic compound (tacrolimus) after periadventitial delivery to coronary arteries, LC/MS of tissue; format: in vivo, swine; details: for concentration at 48 h: swine, in vivo
Procedure: Distribution of a lipophilic compound (tacrolimus): Eight swine underwent angiography. […] The two remaining arteries served as untreated controls. An untreated heart was used as a negative control. At 48 hours arteries were dissected from the musculature and perivascular fat, cut into 5 mm sections and analyzed by Liquid Chromatography/Mass Spectrometry against tacrolimus calibration standards containing homogenized untreated porcine heart tissue.

| Structure (SMILES) | staining: site of delivery and diffusion [1] | persistence of drug in the artery ([2]; 48 hours after injection, full length of the artery) | subjects with distribution to the entire coronary tree ([2]; periadventitial delivery, 48 hours) | concentration at 48 h ([2]; mean concentration in the remaining segments) [ng/g] | concentration at 48 h ([2]; mean concentration within 1 cm of known injection sites) [ng/g] | concentration at 48 h ([2]; mean level of tacrolimus in confirmed injected arteries) [ng/g] | concentration at 48 h ([2]; mean level of tacrolimus in uninjected arteries of treated hearts) [ng/g] |
| --- | --- | --- | --- | --- | --- | --- | --- |
| O=[N+]([O-])[O-].[Ag+] [Silver Nitrate] | delivery outside the external elastic lamina of the vessels and diffusion around the circumference |  |  |  |  |  |  |
| C=CC[C@@H]1/C=C(\C)C[C@H](C)C[C@H](OC)[C@H]2O[C@@](O)(C(=O)C(=O)N3CCCC[C@H]3C(=O)O[C@H](/C(C)=C/[C@@H]3CC[C@@H](O)[C@H](OC)C3)[C@H](C)[C@@H](O)CC1=O)[C@H](C)C[C@@H]2OC [tacrolimus] |  | detectable | 8/8 | 26 | 64 | 55 | 27 |
